Results from publication PMC12059162 (Scientific Reports, 2025).

Legend:
[1] = alamarBlue cell viability, cardiotoxicity; conditions: mouse, HL-1 cardiomyocytes
PANC-1 cells [2] = assay: Cell cycle analysis (PI, flow cytometry)
phospho-p53 (S15) = assay: Human Apoptosis Array in PANC-1 cells; conditions: PANC-1, 0.5 µM, 72 h
cleaved caspase-3 = assay: Human Apoptosis Array in PANC-1 cells; conditions: PANC-1, 0.5 µM, 72 h
[3] = alamarBlue cell viability, healthy cells; conditions: human, NHDF cells
MIA PaCa-2 cells [4] = assay: alamarBlue cell viability; conditions: Homo sapiens, MIA PaCa-2, 72 h, read-out: Viability (%) after 72-h treatment
pro-caspase-3 = assay: Human Apoptosis Array in PANC-1 cells; conditions: PANC-1, 0.5 µM, 72 h
EBC-1 cells = assay: alamarBlue cell viability; conditions: Homo sapiens, EBC-1, 72 h
DR4 = assay: Human Apoptosis Array in PANC-1 cells; conditions: PANC-1, 0.5 µM, 72 h
PANC-1 cells [5] = assay: Holographic microscopy morphometry (HoloMonitor M4); type: cell-based, human; conditions: PANC-1, 0.5 µM, 72 h
Procedure: To follow the morphometric changes, a holographic transmission microscope (HoloMonitor M4; Phase Holographic Imaging AB, Lund, Sweden) was used, which uses a laser to produce 3D images of the cells[51],[52]. This […] imaging technique allows us to monitor cell morphological changes in real-time. First, the cells were seeded at a concentration of 3.5 × 10^5 cells/flask/4000 µL cell culture medium. […] At least 5 images were taken from each culture dish, taking care to assess different fields of view. These images were evaluated using the microscope software (Hstudio M4). We assessed the average area and the average optical thickness of the cells.

p53 = assay: qPCR apoptotic gene expression in PANC-1 cells; conditions: PANC-1, 25 µM, 24 h, normalised to DMSO control
phospho-p53 (S46) = assay: Human Apoptosis Array in PANC-1 cells; conditions: PANC-1, 0.5 µM, 72 h
cIAP-1 = assay: Human Apoptosis Array in PANC-1 cells; conditions: PANC-1, 0.5 µM, 72 h
PANC-1 cells [6] = assay: xCELLigence SP impedimetric cell viability; conditions: Homo sapiens, PANC-1, 72 h
MIA PaCa-2 cells [7] = assay: Cell cycle analysis (PI, flow cytometry); conditions: MIA PaCa-2, 0.5 µM, 48 h
PANC-1 cells [8] = assay: Annexin-V/7AAD early and late apoptosis flow cytometry; type: cell-based, human; conditions: PANC-1, 0.5 µM, 72 h
Procedure: For apoptosis measurements, Annexin-V positive/7AAD (7-Aminoactinomycin D) negative, early apoptotic and Annexin-V/ 7AAD double positive, late apoptotic cells were differentiated using a BD FACSCalibur (BD FACSCalibur, Becton-Dickinson, San Jose, CA, USA) flow cytometer[49],[50]. […] After 24, 48, and 72 h treatment, cells were harvested with 300 µL TrypLE (Sigma Ltd. St. Louis, MO, USA). Fresh cell culture medium was then added to stop the effect of TrypLE and the harvested cells were centrifuged for 5 min (300 g). Then, the supernatant was removed, and cells were resuspended in 300 µL of Annexin binding buffer (Sony Biotechnology, Weybridge, UK). For labelling, 3–3 µL of Annexin-V-FITC (Sony Biotechnology, Weybridge, UK) and 7AAD (Sony Biotechnology, Weybridge, UK) were added, followed by 10 min incubation at room temperature in the dark. For flow cytometric analysis (BD FACSCalibur, Becton–Dickinson, San Jose, CA, USA), a minimum of 10^4 cells/sample was measured. Annexin-V was detected using the FL-1 channel (530/30), and 7AAD was detected using the FL-3 channel (670 LP). In each treatment group, 3 parallel samples were analysed. The results were evaluated using Flowing Software 2.5.1 (Turku Centre of Biotechnology, Turku, Finland).

DR5 = assay: qPCR apoptotic gene expression in PANC-1 cells; conditions: PANC-1, 25 µM
TRAIL = assay: qPCR apoptotic gene expression in PANC-1 cells; conditions: PANC-1, 25 µM, 3 h, normalised to DMSO control
HSP60 = assay: Human Apoptosis Array in PANC-1 cells; conditions: PANC-1, 0.5 µM, 72 h
COLO-205 cells = assay: alamarBlue cell viability; conditions: Homo sapiens, COLO 205, 72 h, read-out: Viability (%) after 72-h treatment
A2058 cells = assay: alamarBlue cell viability; conditions: Homo sapiens, A2058, 72 h
[9] = read-out: IC50 values (μM) 72 hours
[10] = read-out: Viability (%) after 72-h treatment

IC50 (PANC-1 cells [6]; [9]): 1.8 µM
SMILES: O=C1C2=C(CCN(Cc3ccccc3)C2)N2CCN=C2N1Cc1cccc(F)c1 [TBP-135]
viability at 72 h, 0.5 µM [1]: 98.8 ± 1.5% | viability at 72 h, 10 µM [1]: 86.8 ± 3.2% | viability at 72 h, 25 µM [1]: 88.3 ± 2.8% | Effect on cell cycle (PANC-1 cells [2]; PANC-1, 0.5 µM, 48 h): G1 phase block | Increase in cell number in the G2/M phase (PANC-1 cells [2]; PANC-1, 10 and 25 µM, 72 h): 2.2 fold | phospho-p53 (S15) protein level (phospho-p53 (S15)): significantly increased | cleaved caspase-3 protein level (cleaved caspase-3): significantly increased | viability at 72 h, 0.37 µM [3]: 111 ± 2.9% | viability at 72 h, 8.6 µM [3]: 65.9 ± 1.8% | viability at 72 h, 25 µM [3]: 71.4 ± 12.3% | viability at 0.5 µM (MIA PaCa-2 cells [4]): 63.5 ± 2.6% | viability at 10 µM (MIA PaCa-2 cells [4]): 62.7 ± 7.8% | viability at 25 µM (MIA PaCa-2 cells [4]): 65.5 ± 7.9% | pro-caspase-3 protein level (pro-caspase-3): significantly increased | IC50 (EBC-1 cells; [9]): 2.5 µM | viability at 0.5 µM (EBC-1 cells; read-out: Viability (%) after 72-h treatment, EBC-1, 0.5 μM, 72 h, mean ± SD (n = 3)): 66.6 ± 4.1% | viability at 10 µM (EBC-1 cells; read-out: Viability (%) after 72-h treatment, EBC-1, 10 μM, 72 h, mean ± SD (n = 3)): 71.8 ± 31.1% | viability at 25 µM (EBC-1 cells; read-out: Viability (%) after 72-h treatment, EBC-1, 25 μM, 72 h, mean ± SD (n = 3)): 48 ± 4% | DR4 protein level (DR4): significantly increased | Average cell area, fold decrease vs DMSO (PANC-1 cells [5]): 1.9 fold | Average optical thickness, fold increase vs DMSO (PANC-1 cells [5]): 4.1 fold | Average optical thickness (PANC-1 cells [5]; DMSO 1.45 μm): 5.9 μm | Average cell area (PANC-1 cells [5]; DMSO 630 µm^2): 338.5 µm^2 | p53 mRNA expression (p53): 2.9 fold | phospho-p53 (S46) protein level (phospho-p53 (S46)): significantly increased | cIAP-1 protein level (cIAP-1): significantly increased | viability at 0.5 µM (PANC-1 cells [6]; read-out: Viability (%) after 72-h treatment, PANC-1, 0.5 μM, 72 h, mean ± SD (n = 3)): 106 ± 2.4% | viability at 10 µM (PANC-1 cells [6]; read-out: Viability (%) after 72-h treatment, PANC-1, 10 μM, 72 h, mean ± SD (n = 3)): 8.8 ± 0.1% | viability at 25 µM (PANC-1 cells [6]; read-out: Viability (%) after 72-h treatment, PANC-1, 25 μM, 72 h, mean ± SD (n = 3)): 9.2 ± 4.6% | Effect on cell cycle (MIA PaCa-2 cells [7]): did not affect | Early apoptotic cells, fold increase (PANC-1 cells [8]): 2.5 fold | Late apoptotic cells, fold increase (PANC-1 cells [8]): 3.5 fold | Ratio of late apoptotic cells (PANC-1 cells [8]; control 0.9%): 3.2% | Ratio of AnnexinV+ and 7AAD- (early apoptotic) cells (PANC-1 cells [8]; control 21.1%): 53.5% | DR5 mRNA expression (DR5; 3 h): significantly upregulated | DR5 mRNA expression (DR5; 24 h, normalised to DMSO control): 5.9 fold | TRAIL mRNA expression (TRAIL): 2.4 fold | HSP60 protein level (HSP60): significantly increased | viability at 0.5 µM (COLO-205 cells): 74.7 ± 0.6% | viability at 10 µM (COLO-205 cells): 52.6 ± 4.1% | viability at 25 µM (COLO-205 cells): 54.2 ± 3.2% | IC50 (A2058 cells; [9]): 1.75 µM | viability at 0.5 µM (A2058 cells; [10]): 74.9 ± 1.1% | viability at 10 µM (A2058 cells; [10]): 47 ± 4.7% | viability at 25 µM (A2058 cells; [10]): 46.8 ± 2.9%
